From patent US10071083B2 (Ovid Therapeutics Inc., priority 2017, dated 2018)

Tests used:
[1] = system: healthy adults subjected to a 5-hour sleep restriction; assay: Study of daytime performance after sleep restriction (Example 4); format: in vivo, human
Description: The study included a 2-night single-blind placebo run-in period, a 4-night double-blind treatment period during which sleep was restricted to 5 hours and a 2-night single-blind placebo run-out period. The study included healthy male and female volunteers 18 to <55 years of age.
2-night run-in period: All patients received placebo
2-night run-out period: All patients received placebo
The primary endpoints included observations based on the Multiple Sleep Latency Test (MSLT) and Slow Wave Sleep (SWS) assessment.

[2] = human, in vivo
[3] = system: healthy, male and female subjects; assay: Study of driving performance after gaboxadol administration (Example 3); format: in vivo, human
Excerpt: The study participants included healthy, male and female subjects between 21 and 45 years of age, with a valid drivers license for at least 3 years.
Following a cognitive and psychomotor test battery, the driving test started at 9 am and lasted for one hour.

patients = patients with a history of drug abuse who received gaboxadol; cited from earlier work
tinnitus = details: published studies reviewed by Jufas and Wood (2015); cited from earlier work

Oc1noc2c1CCNC2 [gaboxadol, 4,5,6,7-tetrahydroisoxazolo [5,4-c]pyridine-3-ol]
biophysiological measures of stress (heart rate variability, cortisol levels, catecholamine levels, body temperature) versus placebo ([1]; gaboxadol 15 mg versus placebo): no differences
daytime performance, effect sizes of the neurocognitive battery ([1]; gaboxadol 15 mg versus placebo): no strong evidence that gaboxadol improves daytime performance
daytime sleepiness during the Sleep Restriction period versus placebo (MSLT) ([1]; gaboxadol 15 mg, 4 nights, sleep restricted to 5 hours, p=0.047, 1 sided): significantly less daytime sleepiness
MSLT longer than placebo, on average ([1]; gaboxadol 15 mg, last two Sleep Restriction days): 2.01 min
Karolinska Sleepiness Score (KSS) less than placebo, on average ([1]; gaboxadol 15 mg, last two Sleep Restriction days, LDA model, p=0.058, 1 sided): 0.68
SWS longer than placebo, on average ([1]; gaboxadol 15 mg, last two Sleep Restriction nights): 20.53 min
slow wave sleep (SWS) during the Sleep Restriction period versus placebo ([1]; gaboxadol 15 mg, p<0.001, 1 sided): significantly more SWS
CL (in the CL/F line) ([2]; iv, 10 mg): 438 mL/min
dose dependence of plasma AUC0-∞ and Cmax ([2]; po): dose proportional increases
most frequent adverse events, middle-of-the-night treatment ([3]; gaboxadol 15 mg at 4 am): dizziness, nausea and somnolence
effect on driving after evening dose compared with blood alcohol ([3]; gaboxadol 15 mg evening dose, comparison with 0.05% blood alcohol concentration): less than the effect observed at a 0.05% blood alcohol concentration
most frequent adverse events, evening treatment ([3]; gaboxadol 15 mg in the evening): headache and somnolence
psychiatric adverse events (patients): steep increase

O=C1CN=C(c2ccccc2Cl)c2cc([N+](=O)[O-])ccc2N1 [Clonazepam]
efficacy in treating tinnitus (tinnitus): effective

Cc1nnc2n1-c1ccc(Cl)cc1C(c1ccccc1)=NC2 [alprazolam]
efficacy in treating tinnitus (tinnitus): opposing results

CN1C(=O)CN=C(c2ccccc2)c2cc(Cl)ccc21 [diazepam]
efficacy in treating tinnitus (tinnitus): not effective
